# Laboratory results taken from US20210267939A1, “COMPOSITIONS AND METHODS FOR TREATING NAFLD/NASH AND RELATED DISEASE PHENOTYPES” (priority 2018, published 2021).
# Legend:
# [1] = tested on: site-specific phosphorylation changes in liver samples; test: Phospho-proteomics of liver from treated Zucker fatty rats; format: in vivo; conditions: BT2 vs vehicle ZFR
# Description: Phosphoproteomics: Large-scale measurements of phosphorylation changes in response to BT2 and PPM1K were performed. Briefly, protein from livers of ZFR treated with BT2 or DMSO, or with Ad-CMV-PPM1K or Ad-CMV-GFP, were solubilized, digested with LysC and trypsin, labeled with TMT-6plex reagents, and mixed in batches of six to enable two direct comparisons: 1) BT2 vs. DMSO (n=3), 2) PPM1K vs. GFP (n=3). Phosphopeptides were enriched from the majority of each mixture using immobilized metal affinity chromatography (IMAC), and a small portion of the input material was retained for assessment of relative protein abundance. Both phosphopeptide and input fractions were subjected to nanoLC-MS/MS using a nano-Acquity UPLC system (Waters) coupled to a Q Exactive Plus Hybrid Quadrupole-Orbitrap mass spectrometer (Thermo Fischer Scientific). Raw LC-MS/MS data were processed in Proteome Discoverer v2.1 (PD2.1, Thermo Fisher Scientific) and subsequent statistical analysis was performed in Microsoft EXCEL. […] (PD2.2, Thermo Fisher Scientific). Phosphosite motif analysis and logo generation was performed in PhosphoSitePlus® by submitting pre-aligned 15 amino acid sequences for all modulated phosphopeptides from each study into the motif and logo analysis tools (Hornbeck et al., 2015).
# Tissue lysis and protein digestion for proteomics: Approximately 50 mg of pulverized liver tissue power from each rat (3 BT2- and 3 DMSO-treated animals; 3 PPM1K- and 3 GFP-overexpressing animals) was re-suspended in 400 μL of ice-cold 8M Urea Lysis Buffer (8 M urea in 50 mM Tris, pH 8.0, 40 mM NaCl, 2 mM MgCl2, 1 mM Na3VO4, 10 mM Na4P2O7, 50 mM NaF, supplemented with protease inhibitor (1× cOmplete mini EDTA-free) and phosphatase inhibitor (1× PhosStop) tablets). […] Protein concentration was determined by BCA, and equal amounts of protein (500 μg, adjusted to 2.5 mg/mL with Urea Lysis Buffer) from each sample was reduced with 5 mM DTT at 37° C. for 30 min, cooled to RT, alkylated with 15 mM iodoacetamide for 30 min in the dark and unreacted iodoacetamide quenched by the addition of DTT up to 15 mM. […]
# Zucker fatty rats = test: Other plasma analytes (lactate, lipids, ketones) in treated Zucker fatty rats; format: in vivo; conditions: ZFR, BT2 20 mg/kg i.p. daily for one week, vs vehicle
# Description: Individually housed, male 12 week-old Zucker fatty rats (ZFR, Charles River Laboratories) maintained on a custom control low fat (LF) diet (A11072001, Research Diets) were used for the BDK inhibition and PPM1K overexpression studies. For the BDK inhibition study, ZFR were administered the small molecule BDK inhibitor 3,6-dichlorobenzo[b]thiophene-2-carboxylic acid (BT2, Sigma) daily at a dose of 20 mg/kg dissolved in 200 ul of sterile dimethylsulfoxide by i.p. injection for 7 days. The control group was administered an equal volume of vehicle each day. […]
# Plasma concentrations of the alpha-keto acids of leucine (α-keto-isocaproate, KIC), isoleucine (α-keto-β-methylvalerate, KMV) and valine (α-keto-isovalerate, KIV) were measured by LC-MS as previously described (Glynn et al., 2015; White et al., 2016). Other plasma analytes were measured on a Beckman DxC600 autoanalyzer, using reagents for lactate, total cholesterol, and triglycerides from Beckman, and non-esterified fatty acids (NEFA) and ketones (total and 3-hydroxybutyrate) from Wako (Richmond, Va.). Glycerol was measured using reagents from TG-B by Roche Diagnostics (Indianapolis, Ind.). Liver triglycerides were quantified using the triglyceride quantification kit from Abcam. Plasma insulin concentrations were measured with a Millipore EMD Rat insulin ELISA kit.
structure (smiles),measurement,setting,value
"O=C(O)c1sc2cc(Cl)ccc2c1Cl [BT2, 3,6-dichlorobenzo[b]thiophene-2-carboxylic acid]","phosphorylation of serine 25, serine 29 and serine79 of acetyl-coA carboxylase 1 (ACC1), phospho-proteomics",[1],less phosphorylated
same,"phosphosite serine 454 of ATP-citrate lyase (ACL), phospho-proteomics",[1],significantly downregulated
same,"Log2 fold change in phosphorylation of serine 293 (serine 333) of BCKDH e1a, phospho-proteomics",[1]; p=0.054,−0.68
same,"circulating TG, cholesterol, glycerol, non-esterified fatty acids (NEFA), or ketones",Zucker fatty rats,no effects
same,lactate in circulation,Zucker fatty rats,lower levels
